This note sets out measurements from patent US8951964B2, “Phenanthridine macrocyclic hepatitis C serine protease inhibitors” (priority 2010, dated 2015).

A value given as a limit tells only on which side of the number the result lay.

Type in all cases: cell-based, HCV
The test system of assay [1] is genotype 1a replicon (1a-H77). Briefly: 1a stable replicon (luciferase reporter). The note with it: Hepatitis C virus, Huh-7, luciferase reporter, HuH-7 cells, 5% FBS.
Assay [2] has as its system genotype 1b replicon (1b-Con1, 1b-N). The assay can be described thus: 1b stable replicon (luciferase reporter). To be noted: Hepatitis C virus, HuH-7 cells, 5% FBS. (In antiviral work, replicon cells carry a viral genome segment that copies itself.)
For assay [3], the system named is genotype 1a transient replicon (1a-H77). The assay can be described thus: 1a transient replicon (luciferase reporter). To be noted: Hepatitis C virus, HuH-7 cells, 5% FBS.
Assay [4] concerns genotype 1b transient replicon. The assay can be described thus: 1b transient replicon (luciferase reporter). To be noted: Hepatitis C virus, HuH-7 cells, 5% FBS.
The subject of assay [5] is genotype 3a NS3 gene in transient replicon. Briefly: 3a transient replicon (luciferase reporter). The note with it: Hepatitis C virus, Huh-7, read-out: 3a transient replicon (nM).

With `Cc1cc(C(=O)N[C@H]2CCCCC/C=C\[C@@H]3C[C@@]3(C(=O)NS(=O)(=O)C3CC3)NC(=O)[C@@H]3C[C@@H](Oc4nc5cccc(F)c5c5ccccc45)CN3C2=O)no1`, the EC50 in assay [1] is 0.5 to 1 nM; in assay [2], 0.1 to 0.5 nM; in assay [3], below 0.1 nM; in assay [4] it was 0.1 to 0.5 nM; in assay [5] it was above 1 nM.
For the compound `Cc1cc(C(=O)N[C@H]2CCCCC/C=C\[C@@H]3C[C@@]3(C(=O)NS(=O)(=O)C3CC3)NC(=O)[C@@H]3C[C@@H](Oc4nc5ccccc5c5ccc(F)cc45)CN3C2=O)no1`, the EC50 is 0.1 to 0.5 nM in assay [1]; 0.1 to 0.5 nM in assay [2]; below 0.1 nM in assay [3]; 0.1 to 0.5 nM in assay [4]; above 1 nM in assay [5].
Regarding `Cc1cc(C(=O)N[C@H]2CCCCC/C=C\[C@@H]3C[C@@]3(C(=O)NS(=O)(=O)C3CC3)NC(=O)[C@@H]3C[C@@H](Oc4nc5cc(F)c(F)cc5c5ccc(OC(F)(F)F)cc45)CN3C2=O)no1`, the EC50 in assay [1] was 0.5 to 1 nM; in assay [2], 0.5 to 1 nM; in assay [3] it was below 0.1 nM; in assay [4], below 0.1 nM; in assay [5] it was above 1 nM.
For `CC1(S(=O)(=O)NC(=O)[C@@]23C[C@H]2/C=C\CCCCC[C@H](NC(=O)[C@H](O)C(F)(F)F)C(=O)N2C[C@H](Oc4nc5cc(F)ccc5c5ccccc45)C[C@H]2C(=O)N3)CC1`, the EC50 was 0.1 to 0.5 nM in assay [1]; 0.1 to 0.5 nM in assay [2]; below 0.1 nM in assay [3]; below 0.1 nM in assay [4]; above 1 nM in assay [5].
As for `Cc1cc(C(=O)N[C@H]2CCCCC/C=C\[C@@H]3C[C@@]3(C(=O)NS(=O)(=O)C3(C)CC3)NC(=O)[C@@H]3C[C@@H](Oc4nc5ccccc5c5ccc(F)cc45)CN3C2=O)no1`, the EC50 is 0.5 to 1 nM in assay [1]; 0.5 to 1 nM in assay [2]; below 0.1 nM in assay [3]; 0.1 to 0.5 nM in assay [4]; above 1 nM in assay [5].
As to `Cn1ccc(C(=O)N[C@H]2CCCCC/C=C\[C@@H]3C[C@@]3(C(=O)NS(=O)(=O)C3(C)CC3)NC(=O)[C@@H]3C[C@@H](Oc4nc5cc(F)ccc5c5ccccc45)CN3C2=O)n1`, the EC50 in assay [1] was in the range of 0.5 to 1 nM; in assay [2], 0.1 to 0.5 nM; in assay [3] it was 0.1 to 0.5 nM; in assay [4], 0.1 to 0.5 nM; in assay [5], 0.1 to 0.5 nM.
With `Cc1cc(C(=O)N[C@H]2CCCCC/C=C\[C@@H]3C[C@@]3(C(=O)NS(=O)(=O)C3(C)CC3)NC(=O)[C@@H]3C[C@@H](Oc4nc5ccccc5c5cc(F)ccc45)CN3C2=O)no1`, the EC50 in assay [1] is 0.5 to 1 nM; in assay [2], 0.1 to 0.5 nM; in assay [5], above 1 nM.
As to `COc1ccc2c(c1)c(O[C@@H]1C[C@H]3C(=O)N[C@]4(C(=O)NS(=O)(=O)C5CC5)C[C@H]4/C=C\CCCCC[C@H](NC(=O)c4cc(C)on4)C(=O)N3C1)nc1ccccc12`, the EC50 is 0.1 to 0.5 nM in assay [1]; 0.5 to 1 nM in assay [2]; below 0.1 nM in assay [3]; 0.1 to 0.5 nM in assay [4]; above 1 nM in assay [5].
With `Cn1ccc(C(=O)N[C@H]2CCCCC/C=C\[C@@H]3C[C@@]3(C(=O)NS(=O)(=O)C3(C)CC3)NC(=O)[C@@H]3C[C@@H](Oc4nc5ccccc5c5ccc(F)cc45)CN3C2=O)n1`, the EC50 in assay [1] was 0.1 to 0.5 nM; in assay [2], below 0.1 nM; in assay [3], 0.1 to 0.5 nM; in assay [4], 0.1 to 0.5 nM; in assay [5], 0.5 to 1 nM.
Take `Cn1ccc(C(=O)N[C@H]2CCCCC/C=C\[C@@H]3C[C@@]3(C(=O)NS(=O)(=O)C3(C)CC3)NC(=O)[C@@H]3C[C@@H](Oc4nc5ccccc5c5cc(F)ccc45)CN3C2=O)n1`: the EC50 was in the range of 0.5 to 1 nM in assay [1]; 0.1 to 0.5 nM in assay [2]; 0.1 to 0.5 nM in assay [3]; 0.1 to 0.5 nM in assay [4]; 0.5 to 1 nM in assay [5].
For the compound `COc1ccc2c(c1)c(O[C@@H]1C[C@H]3C(=O)N[C@]4(C(=O)NS(=O)(=O)C5CC5)C[C@H]4/C=C\CCCCC[C@H](NC(=O)c4cc(C)on4)C(=O)N3C1)nc1cc(F)ccc12`, the EC50 in assay [1] is 0.5 to 1 nM; in assay [2], 0.5 to 1 nM; in assay [5] it was above 1 nM.
`Cc1cc(C(=O)N[C@H]2CCCCC/C=C\[C@@H]3C[C@@]3(C(=O)NS(=O)(=O)C3CC3)NC(=O)[C@@H]3C[C@@H](Oc4nc5cc(F)ccc5c5ccccc45)CN3C2=O)no1`: the results for the EC50 in assay [1], in assay [2] and in assay [5] were 0.1 to 0.5 nM, 0.1 to 0.5 nM and above 1 nM, respectively.
Take `Cn1ccc(C(=O)N[C@H]2CCCCC/C=C\[C@@H]3C[C@@]3(C(=O)NS(=O)(=O)C3(C)CC3)NC(=O)[C@@H]3C[C@@H](Oc4nc5cc(F)ccc5c5cc(F)ccc45)CN3C2=O)n1`: the EC50 in assay [1] is 0.1 to 0.5 nM; in assay [2], below 0.1 nM; in assay [3], 0.1 to 0.5 nM; in assay [4] it was 0.1 to 0.5 nM.
Turning to `Cn1ccc(C(=O)N[C@H]2CCCCC/C=C\[C@@H]3C[C@@]3(C(=O)NS(=O)(=O)C3CC3)NC(=O)[C@@H]3C[C@@H](Oc4nc5cc(F)ccc5c5ccccc45)CN3C2=O)n1`, the EC50 in assay [1] is 0.1 to 0.5 nM; in assay [2], below 0.1 nM; in assay [3], 0.1 to 0.5 nM; in assay [4], 0.1 to 0.5 nM.
Turning to `CC1(S(=O)(=O)NC(=O)[C@@]23C[C@H]2/C=C\CCCCC[C@H](NC(=O)c2ccn(C(F)F)n2)C(=O)N2C[C@H](Oc4nc5cc(F)ccc5c5ccccc45)C[C@H]2C(=O)N3)CC1`, the EC50 in assay [1] fell in the range of 0.5 to 1 nM; in assay [2], 0.1 to 0.5 nM; in assay [3], 0.1 to 0.5 nM; in assay [4], 0.1 to 0.5 nM.
Regarding `Cn1ccc(C(=O)N[C@H]2CCCCC/C=C\[C@@H]3C[C@@]3(C(=O)NS(=O)(=O)C3CC3)NC(=O)[C@@H]3C[C@@H](Oc4nc5cc(F)ccc5c5cc(F)ccc45)CN3C2=O)n1`, the EC50 in assay [1] was 0.5 to 1 nM; in assay [2], below 0.1 nM; in assay [3], 0.1 to 0.5 nM; in assay [4], 0.1 to 0.5 nM.
As for `Cn1ccc(C(=O)N[C@H]2CCCCC/C=C\[C@@H]3C[C@@]3(C(=O)NS(=O)(=O)C3CC3)NC(=O)[C@@H]3C[C@@H](Oc4nc5cccc(F)c5c5ccccc45)CN3C2=O)n1`, the EC50 in assay [1] was 0.5 to 1 nM; in assay [2], below 0.1 nM; in assay [3] it was 0.5 to 1 nM; in assay [4], 0.1 to 0.5 nM.
On to `Cn1ccc(C(=O)N[C@H]2CCCCC/C=C\[C@@H]3C[C@@]3(C(=O)NS(=O)(=O)C3CC3)NC(=O)[C@@H]3C[C@@H](Oc4nc5ccccc5c5cccc(F)c45)CN3C2=O)n1`, for which the EC50 in assay [1] was 0.5 to 1 nM; in assay [2] it was below 0.1 nM; in assay [3], 0.1 to 0.5 nM; in assay [4] it was 0.5 to 1 nM.
For `COc1ccc2c(c1)nc(O[C@@H]1C[C@H]3C(=O)N[C@]4(C(=O)NS(=O)(=O)C5CC5)C[C@H]4/C=C\CCCCC[C@H](NC(=O)c4cc(C)on4)C(=O)N3C1)c1ccc(F)cc12`, the EC50 in assay [1] was 0.1 to 0.5 nM; in assay [2] it was 0.1 to 0.5 nM; in assay [5], above 1 nM.
As for `Cn1ccc(C(=O)N[C@H]2CCCCC/C=C\[C@@H]3C[C@@]3(C(=O)NS(=O)(=O)C3(C)CC3)NC(=O)[C@@H]3C[C@@H](Oc4nc5ccccc5c5cccc(F)c45)CN3C2=O)n1`, the EC50 is below 0.1 nM in assay [1], 0.1 to 0.5 nM in assay [2], 0.1 to 0.5 nM in assay [3] and 0.1 to 0.5 nM in assay [4].
In the case of `Cn1ccc(C(=O)N[C@H]2CCCCC/C=C\[C@@H]3C[C@@]3(C(=O)NS(=O)(=O)C3CC3)NC(=O)[C@@H]3C[C@@H](Oc4nc5cc(OC(F)(F)F)ccc5c5ccccc45)CN3C2=O)n1`, the EC50 in assay [1] is below 0.1 nM; in assay [2] it was below 0.1 nM; in assay [3] it was below 0.1 nM; in assay [4], 0.1 to 0.5 nM.
